Source: patent US20100234381A1, “BIOMARKERS AND METHODS FOR DETERMINING SENSITIVITY TO VASCULAR ENDOTHELIAL GROWTH FACTOR RECEPTOR-2 MODULATORS” (Bristol-Myers Squibb Company, priority 2007, published 2010)
Entries after “also recorded” stand apart in the source; their conditions may differ.

Legend:
GEO colon cancer cells [1] = test: VEGF-induced proliferation of GEO colon cancer cells (modified MTS assay); format: cell-based; details: VEGF 2.5 ng/ml; 72 hours
Description: (§1) Cell Culture-GEO colon cancer cell line was routinely maintained in RPMI 1640 (Cellgro, Virginia) with 1% fetal bovine serum (Cellgro, Virginia) at 37° C. in 5% carbon dioxide/95% air in the presence of 100 units/ml penicillin, 100 μg/ml streptomycin (Cellgro, Virginia). Cell proliferation was determined by a modified MTS assay with […] 96® Aqueous One Solution Reagent (Promega, Madison, Wis.). […] After 180 minutes incubation, the optical densities (OD) of these samples were directly measured using SPECTRAMAX® plus (Molecular Device, California) and reference wavelength of 490 nm. […] Cell proliferation was determined by a modified MTS assay with […] […] After 180 minutes incubation, the optical densities (OD) of these samples were directly measured using SPECTRAMAX® plus (Molecular Device, California) and reference wavelength of 490 nm. […] […]

pERK and pAKT = test: Western blot of downstream pERK and pAKT after FGF2 stimulation; format: cell-based; details: 2 μm brivanib, 40 ng/ml FGF2, HCC cell line
Description: Anti-FGFR1, Anti-VEGFR2, Anti-ERK, Anti-AKT, and Anti-alpha tubulin antibodies were also utilized. Blots were incubated with indicated primary antibodies and 1:7500 horseradish peroxidase-conjugated secondary antibodies. All primary antibodies were used at a final concentration of 1 μg/ml. The blots were then visualized with a chemiluminescent detection system.

[2] = tested on: FGF2-stimulated cancer cell lines; test: FGF2-stimulated tumor cell proliferation, panel of cancer cell lines; format: cell-based; details: following FGF2 stimulation
[3] = tested on: A2780 ovarian cancer cells; test: FGF2-induced proliferation of A2780 ovarian cancer cells (modified MTS assay); format: cell-based
Description: Cell proliferation was determined by a modified MTS assay with […] 96® Aqueous One Solution Reagent (Promega, Madison, Wis.). A2780 ovarian cancer cells, MIAPAC-2 pancreatic cancer cells, or GEO colon cancer cells were seeded on 96-well flat-bottomed tissue culture plates (Becton Dickinson, San Jose, Calif.) at a concentration of 3×10^3 cells/well in RPMI 1640 with 1% fetal bovine serum at 37° C. in 5% carbon dioxide/95% air in the presence of 100 units/ml penicillin, 100 μg/ml streptomycin and allowed to adhere to the plate overnight. Then the cells were incubated in the presence of each concentration of 0 (control), 0.3, 0.6, 1.25, 2.5, 5, 10 ng/ml of FGF2 or VEGF for another 72 hours at 37° C. in a humidified atmosphere of 5% CO2 in air. After treatment, 20 μl of […] 96® Aqueous One Solution Reagent was dropped into each well of plates. After 180 minutes incubation, the optical densities (OD) of these samples were directly measured using SPECTRAMAX® plus (Molecular Device, California) and reference wavelength of 490 nm. The OD of control samples was regarded as 100. Each condition was performed with 4 wells and experiment was repeated twice.

[4] = tested on: VEGF-stimulated cancer cell lines; test: VEGF-stimulated tumor cell proliferation, panel of cancer cell lines; format: cell-based; details: in vitro
[5] = tested on: FGF2 growth factor gene expression; test: FGF2 gene expression, AFFYMETRIX human arrays
GEO colon cancer cells [6] = test: FGF2-induced proliferation of GEO colon cancer cells (modified MTS assay); format: cell-based
Description: as §1

sVEGFR2 = test: Plasma sVEGFR2 change from baseline in patients; format: in vivo, human
GEO colon cancer model = test: Tumor growth inhibition in GEO colon cancer model; format: in vivo; details: compared to bevacizumab
FGF pathway = test: Gene set enrichment analysis of FGF pathway expression after FGF2 stimulation; format: cell-based; details: 1 μm drug after FGF2 stimulation
Description: The expression profiles of individual genes within each pathway were analyzed, and the log of the change in expression profile for each condition was measured. Overall, 67 pathways were analyzed. Each gene analyzed for each pathway have not been provided. But, 46 genes from the FGF pathway, 62 genes from the VEGF pathway were analyzed, and a larger generic number of genes consisting of 92 genes for the FGF pathway were analyzed using the AMBION® gene set.

Substance: [(1R),2S]-2-Aminopropionic acid 2-[4-(4-fluoro-2-methyl-1H-indol-5-yloxy)-5-methylpyrrolo[2,1-f][1,2,4]triazin-6-yloxy]-1-methylethyl ester [brivanib]
- inhibition of VEGF-induced cellular proliferation in GEO cells (GEO colon cancer cells [1]): did not potently inhibit
- downstream pathway pERK and pAKT (pERK and pAKT): affecting downstream pathway genes such as pERK and pAKT
- Brivanib-resistant (>3 μM) cell lines, number ([2]; Colon cell lines): 3
- Brivanib-resistant (>3 μM) cell lines, number ([2]; NSCLC cell lines): 1
- Brivanib-resistant (>3 μM) cell lines, number ([2]; Ovarian cell lines): 1
- Brivanib-sensitive (≦3 μM) cell lines, number ([2]; Ovarian cell lines): 1
- Brivanib-resistant (>3 μM) cell lines, number ([2]; Pancreatic cell lines): 1
- Brivanib-sensitive (≦3 μM) cell lines, number ([2]; Pancreatic cell lines): 1
- Brivanib-sensitive (≦3 μM) cell lines, number ([2]; Prostate cell lines): 1
- Brivanib-resistant (>3 μM) cell lines, number ([2]; Renal cell lines): 1
- Brivanib-sensitive (≦3 μM) cell lines, number ([2]; Renal cell lines): 3
- Brivanib-sensitive (≦3 μM) cell lines, number ([2]; Total of cell lines): 9
- effect on FGF2-induced cellular proliferation ([3]; A2780 ovarian cancer cells): potently inhibited; also recorded: inhibits ovarian cancer and pancreatic cancer cell line growth directly
- inhibition of FGF2-induced cell growth ([3]; ovarian cancer cell line A2870): > 50%
- IC50 ([3]; ovarian cancer cell line A2870, read-out: IC50, FGF2-induced cell growth): < 1000 nM
- effect on tumor cell proliferation in the presence of VEGF [4]: no affect on tumor cell proliferation
- modulation of FGF2 growth factor gene expression levels [5]: modulated FGF2 growth factor gene expression levels
- GEO tumor cell growth over time, stimulated with FGF2 (GEO colon cancer cells [6]; 2.5 μM brivanib, day 1 to 8 compared to day 0 control): inhibited GEO tumor cell growth stimulated with FGF2
- inhibition of FGF2-induced cellular proliferation in GEO cells (GEO colon cancer cells [6]; FGF2 2.5 ng/ml, 72 hours): potently inhibited; also recorded: inhibited cancer cell growth directly; also recorded: inhibits colon cancer cell growth directly
- sVEGFR2 change from baseline (%) (Day 26) (n = 39) (sVEGFR2; FGF2+ patients (n = 24)): −23%
- sVEGFR2 change from baseline (%) (Day 26) (n = 39) (sVEGFR2; FGF2− patients (n = 19)): −15%
- ability to inhibit tumor growth (GEO colon cancer model): increased affect on the ability to inhibit tumor growth when compared to bevacizumab
- FGF2-induced FGF pathway up-regulation (expression) (FGF pathway): inhibited only by brivanib; also recorded: abrograted only in the presence of only brivanib
